Entries after “also recorded” stand apart in the source; their conditions may differ.
Columns and labels:
[1] = system: engineered cardiac tissue construct (ECTC) from neonatal rat ventricular cells; assay: I-Wire ECTC elasticity measurement (stretch-stress curve, Young's modulus); type: cell-based
Method: (§1) Method step 2. Cell isolation and culturing: Neonatal rat ventricular cells were obtained from 2-day-old neonatal Sprague-Dawley rats using a trypsin digestion protocol with agitation overnight at 4° C. and plating cells for 40 minutes at 37° C. The population of isolated cells is heterogeneous and besides cardiomyocytes includes cardiofibroblasts, endothelial cells, and vascular smooth muscle cells. The presence of the different cell types is important for formation of the extracellular matrix and tissue structure. The isolated cells were mixed with fibrinogen (5 mg/mL, Sigma-Aldrich, St. Louis, Mo., USA)/Matrigel™ (100 μL/mL, BD Biosciences, San Jose, Calif., USA) plus thrombin (15 μL, 100 U/mL, Sigma-Aldrich, St. Louis, Mo., USA), and pipetted in a casting mold (FIG. 21A). Thereafter, cells were kept at 37° C. in a 5% CO2 humidified cell culture incubator for 1 hour. When fibrinogen was polymerized, 2 mL of cell culture media was added per well. The culture medium consisted of DMEM (Gibco Fisher Scientific, Waltham, Mass., USA), 10% horse serum (Gibco Fisher Scientific, Waltham, Mass., USA), 2% chick embryo extract (US Biological Fisher Scientific, Waltham, Mass., USA), 1% penicillin/streptomycin (Gibco Fisher Scientific, Waltham, Mass., USA), 10 μg/mL insulin (Sigma-Aldrich, St. Louis, Mo., USA), 400 μM tranexamic acid (Sigma-Aldrich, St. Louis, Mo., USA), and 33 μg/mL aprotinin (Sigma-Aldrich, St. Louis, Mo., USA). Over time, the preparation condensed to form elongated muscle fibers of 350-400 μm in diameter and 7 mm long. After 13-15 days of culturing, the contractility and stiffness of the ECTC (FIGS. 21B and 21C) could be measured using our microscope-based optical setup (FIG. 3A).
Method step 3. […]
At first, the linear part of the ECTC stretch-force curve was fitted using a linear equation and the amount of change of ECTC length was calculated. […]

isolated mice CMs = details: after application of blebbistatin; cited from earlier work
[2] = system: engineered cardiac tissue construct (ECTC) from neonatal rat ventricular cells; assay: I-Wire ECTC contractility under β-adrenergic stimulation; type: cell-based
Method: as §1
Method step 3. Registration system for the contraction recording: To apply tensional force to the ECTC and detect contraction, a flexible PEEK tube of 365 μm in outer diameter and 120 μm bore (Putnam Plastics, Dayville, Conn., USA) and 28 mm length was glued to a Plexiglas cantilever adjuster attached to a cantilever support plate with two embedded position-control magnets (FIG. 3A). The stiffness of the probe was roughly matched to that of the ECTC; one might choose to use either a softer or stiffer probe to study ECTCs with different mechanical properties. The cantilever support plate with cantilever adjuster and flexible probe was mounted with a friction fit to the condenser of the inverted optical microscope (Eclipse Ti, Nikon, Melville, N.Y., USA) equipped with a digital camera system (Zyla sCMOS Camera, Andor Technology, Belfast, Northern Ireland). […]
Method step 4. Registration of action potential and reconstruction of electrical and mechanical restitution: Action potentials were recorded by utilizing floating micropipettes filled with 3-M KCl. […]

Structure (SMILES)	decrease of ECTC stiffness ([1]; 6 μM blebbistatin)	Young's modulus of the ECTC ([1]; 6 μM blebbistatin, untreated (relaxation) 13.4±2.5 kPa, N=5, P<0.05)	slope of the fitted straight line of the stretch-stress curve ([1]; blebbistatin-treated ECTCs, 6 μM, systolic 4.9, diastolic 15.1 %/mN)	lowering of the diastolic stress (isolated mice CMs)	contraction duration ([2]; 1 μM isoproterenol (β-adrenergic stimulation))	contraction velocity ([2]; 1 μM isoproterenol, applied force exceeded 0.233 mN, P<0.05, N=7)	developed force ([2]; 1 μM isoproterenol, applied transverse forces greater than 0.156 mN, P<0.05, N=7)	force exerted by the ECTC during contraction and relaxation ([2]; 1 μM isoproterenol, separate analysis of systole and diastole)
Cc1ccc2c(c1)C(=O)C1(O)CCN(c3ccccc3)C1=N2 (centres unmarked) [blebbistatin]	23%	10.3±2.8 kPa	17.5 %/mN	30%	–	–	–	–
CC(C)NCC(O)c1ccc(O)c(O)c1 (centres unmarked) [isoproterenol]	–	–	–	–	shortening	statistically significant acceleration	significant increase	significant change occurs only in the phase of relaxation; also recorded: significant effect of the isoproterenol only during the diastolic phase

— patent publication US10761001B2, “Devices and methods for tension measurements and applications of same” (Vanderbilt University, priority 2016, dated 2020)
